Assay results reported in paper PMC11645267, “Novel pharmacologic inhibition of lysine-specific demethylase 1 as a potential therapeutic for glioblastoma” (Cancer Gene Therapy, 2024).

Experiments:
[1] = test system: LN229; assay: Western blot of global histone modifications; format: cell-based; settings: LN229, 5 μM, 96 h
Experimental: The effects of S2172 on global histone modifications in GSCs were examined using western blot analysis. GSC cells were treated with 5 μM of S2172 since […] of the cells are still viable at this concentration (Fig. 2, Supplementary Fig. S1E). […] Treatment of GSCs with S2172 increased the overall levels of H3K4me2 as well as H3K9me2. However, these changes were not statistically significant (Fig. 2A, B). […]
instructions. For GSC cells, the CellTiter-Glo 3D Viability Assay (Promega, Madison, WI, USA) was used to measure the living cells. All proliferation experiments were repeated […]
The density of bands was quantified using ImageJ software (https://imagej.nih.gov/ij/). […]
When mice were scanned with MRI, mice were anesthetized with isoflurane (3% in air) and placed in MRS 3017 Benchtop MRI Systems (MR Solutions, Guildford, UK). Using MRI images, tumor volumes were obtained by compiling tumor areas from all slices that contained tumors and calculated by ImageJ software (https://imagej.nih.gov/ij/) {Towner, […]
A. Western blot analysis (left panel) of H3K4me1, H3K4me2, H3K4me3, and H3K9me2 after treatment with either DMSO or S2172 5μM for 96 h in LN229. […] Quantification of signal intensity of western blot (right panel). […] Ratio was calculated by dividing cleaved band intensity by total protein band intensity. […]

[2] = target: T1, MAO-A (Homo sapiens, UniProt P21397); assay: Enzyme inhibition assay (in vitro peroxidase assay) against MAO-A
T1 sequence (P21397 1-527): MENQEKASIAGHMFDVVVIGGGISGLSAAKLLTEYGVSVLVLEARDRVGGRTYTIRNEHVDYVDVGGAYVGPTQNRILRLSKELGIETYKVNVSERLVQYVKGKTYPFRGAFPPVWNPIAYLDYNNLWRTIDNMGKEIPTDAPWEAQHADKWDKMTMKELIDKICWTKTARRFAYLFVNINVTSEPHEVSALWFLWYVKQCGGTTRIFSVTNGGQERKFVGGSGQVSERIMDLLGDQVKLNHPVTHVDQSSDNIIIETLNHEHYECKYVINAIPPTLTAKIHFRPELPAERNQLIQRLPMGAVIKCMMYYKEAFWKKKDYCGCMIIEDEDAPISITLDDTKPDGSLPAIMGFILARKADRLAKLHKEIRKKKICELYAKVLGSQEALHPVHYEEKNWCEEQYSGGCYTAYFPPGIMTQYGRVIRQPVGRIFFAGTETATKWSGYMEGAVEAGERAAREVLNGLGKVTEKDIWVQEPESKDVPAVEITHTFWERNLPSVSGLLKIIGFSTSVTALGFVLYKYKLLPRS
Experimental: (§1) Enzyme inhibition assays against LSD1, LSD2, MAO-A, and MAO-B were performed as previously described [25]. Technical replicates, n = 3.

[3] = target: T2, MAO-B (Homo sapiens, UniProt P27338); assay: Enzyme inhibition assay (in vitro peroxidase assay) against MAO-B
T2 sequence (P27338 1-520): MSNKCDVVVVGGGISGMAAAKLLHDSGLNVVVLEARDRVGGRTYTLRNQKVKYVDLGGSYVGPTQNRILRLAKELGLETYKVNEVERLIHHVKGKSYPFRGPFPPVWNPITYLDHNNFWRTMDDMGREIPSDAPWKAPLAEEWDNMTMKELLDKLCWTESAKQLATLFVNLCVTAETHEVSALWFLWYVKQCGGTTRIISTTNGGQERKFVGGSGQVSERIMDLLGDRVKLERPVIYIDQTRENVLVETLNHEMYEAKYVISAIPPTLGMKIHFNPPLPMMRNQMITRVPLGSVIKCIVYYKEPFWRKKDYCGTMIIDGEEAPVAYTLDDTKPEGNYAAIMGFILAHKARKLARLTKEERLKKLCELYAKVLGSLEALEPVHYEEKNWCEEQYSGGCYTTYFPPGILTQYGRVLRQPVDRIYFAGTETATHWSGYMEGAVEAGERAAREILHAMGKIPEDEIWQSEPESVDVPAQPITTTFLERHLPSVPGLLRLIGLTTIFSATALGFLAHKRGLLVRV
Experimental: as §1

Ki [2]: > 250 µM
Inhibition of MAO-A (in words) ([2]; in vitro peroxidase assay): not inhibited
Ki [3]: > 250 µM
Inhibition of MAO-B (in words) ([3]; in vitro peroxidase assay): not inhibited
Structure (SMILES): NC1CCC(NC2CC2c2cc(F)cc(F)c2OCc2ccccc2)CC1 (centres unmarked) [S2172]
level of H3K4me2 [1]: significantly increased
